According to ChEMBL document CHEMBL3351476, “The discovery of I-BET726 (GSK1324726A), a potent tetrahydroquinoline ApoA1 up-regulator and selective BET bromodomain inhibitor” (J Med Chem, 2014):
Values after ≈ are worked out from the molar mass of the structure shown.

How the values were obtained:
[1] = molecular target: Histone acetyltransferase p300 (Homo sapiens, UniProt Q09472); assay: Inhibition of human EP300 by BROMOscan assay
[2] = molecular target: ATPase family AAA domain-containing protein 2 (Homo sapiens, UniProt Q6PL18); assay: Inhibition of human ATAD2 by BROMOscan assay
[3] = test system: Hepatocyte; assay: Clearance in human hepatocytes assessed per gram of tissue at 1 uM by LC-MS/MS analysis; type: ADME, cell-based
[4] = Fraction unbound in mouse blood by rapid equilibrium dialysis method; type: ADME, tissue-based
[5] = molecular target: Cytochrome P450 2C9 (Homo sapiens, UniProt P11712); assay: Inhibition of CYP2C9 (unknown origin) expressed in Escherichia coli bactosomes using 7-methoxy-4-trifluoromethylcoumarin-3-acetic acid as substrate after 10 mins by fluorescence assay; type: ADME
[6] = molecular target: T1, Bromodomain-containing protein 2 (Homo sapiens, UniProt P25440); assay: Inhibition of human BRD2 bromodomain 1 by BROMOscan assay
T1 sequence (P25440 whole entry): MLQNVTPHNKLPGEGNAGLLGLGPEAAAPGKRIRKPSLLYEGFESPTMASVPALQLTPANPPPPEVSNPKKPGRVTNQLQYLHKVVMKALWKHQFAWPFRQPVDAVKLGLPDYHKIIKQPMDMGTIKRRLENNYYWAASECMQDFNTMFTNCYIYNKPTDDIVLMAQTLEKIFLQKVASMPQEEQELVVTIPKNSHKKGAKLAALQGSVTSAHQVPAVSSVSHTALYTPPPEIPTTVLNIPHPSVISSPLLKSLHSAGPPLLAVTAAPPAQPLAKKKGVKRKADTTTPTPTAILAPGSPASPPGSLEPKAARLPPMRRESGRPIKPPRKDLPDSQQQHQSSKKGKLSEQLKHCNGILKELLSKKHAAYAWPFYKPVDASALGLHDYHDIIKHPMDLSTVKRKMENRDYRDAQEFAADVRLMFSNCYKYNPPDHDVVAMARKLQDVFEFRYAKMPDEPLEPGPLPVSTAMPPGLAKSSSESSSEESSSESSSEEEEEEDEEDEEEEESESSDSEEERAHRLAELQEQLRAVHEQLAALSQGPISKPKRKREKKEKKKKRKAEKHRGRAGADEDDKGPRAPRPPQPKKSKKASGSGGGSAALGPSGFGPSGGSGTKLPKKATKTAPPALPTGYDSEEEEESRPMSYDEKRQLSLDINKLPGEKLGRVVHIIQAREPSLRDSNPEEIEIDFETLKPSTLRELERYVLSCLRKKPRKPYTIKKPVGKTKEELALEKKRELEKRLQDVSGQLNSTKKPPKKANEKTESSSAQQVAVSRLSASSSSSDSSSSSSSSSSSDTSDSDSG

[7] = molecular target: Transcription intermediary factor 1-alpha (Homo sapiens, UniProt O15164); assay: Inhibition of human TIF1alpha PHD/bromodomain by BROMOscan assay
[8] = Volume of distribution at steady state in beagle dog at 1 mg/kg, iv as infusion and 3 mg/kg, po; type: ADME, organism-based, Canis lupus familiaris; conditions: in vivo, read-out: Vdss
[9] = Oral bioavailability in Balb/c mouse at 3 mg/kg; type: ADME, organism-based; conditions: in vivo
[10] = Solubility of the compound in fasted state simulated intestinal fluid at 125 ug/ml after 16 hrs by HPLC analysis; type: ADME; conditions: fasted state simulated intestinal fluid
[11] = molecular target: E3 ubiquitin-protein ligase TRIM33 (Homo sapiens, UniProt Q9UPN9); assay: Inhibition of human TIF1gamma PHD/bromodomain by BROMOscan assay
E3 ubiquitin-protein ligase TRIM33, sequence (Q9UPN9 whole entry): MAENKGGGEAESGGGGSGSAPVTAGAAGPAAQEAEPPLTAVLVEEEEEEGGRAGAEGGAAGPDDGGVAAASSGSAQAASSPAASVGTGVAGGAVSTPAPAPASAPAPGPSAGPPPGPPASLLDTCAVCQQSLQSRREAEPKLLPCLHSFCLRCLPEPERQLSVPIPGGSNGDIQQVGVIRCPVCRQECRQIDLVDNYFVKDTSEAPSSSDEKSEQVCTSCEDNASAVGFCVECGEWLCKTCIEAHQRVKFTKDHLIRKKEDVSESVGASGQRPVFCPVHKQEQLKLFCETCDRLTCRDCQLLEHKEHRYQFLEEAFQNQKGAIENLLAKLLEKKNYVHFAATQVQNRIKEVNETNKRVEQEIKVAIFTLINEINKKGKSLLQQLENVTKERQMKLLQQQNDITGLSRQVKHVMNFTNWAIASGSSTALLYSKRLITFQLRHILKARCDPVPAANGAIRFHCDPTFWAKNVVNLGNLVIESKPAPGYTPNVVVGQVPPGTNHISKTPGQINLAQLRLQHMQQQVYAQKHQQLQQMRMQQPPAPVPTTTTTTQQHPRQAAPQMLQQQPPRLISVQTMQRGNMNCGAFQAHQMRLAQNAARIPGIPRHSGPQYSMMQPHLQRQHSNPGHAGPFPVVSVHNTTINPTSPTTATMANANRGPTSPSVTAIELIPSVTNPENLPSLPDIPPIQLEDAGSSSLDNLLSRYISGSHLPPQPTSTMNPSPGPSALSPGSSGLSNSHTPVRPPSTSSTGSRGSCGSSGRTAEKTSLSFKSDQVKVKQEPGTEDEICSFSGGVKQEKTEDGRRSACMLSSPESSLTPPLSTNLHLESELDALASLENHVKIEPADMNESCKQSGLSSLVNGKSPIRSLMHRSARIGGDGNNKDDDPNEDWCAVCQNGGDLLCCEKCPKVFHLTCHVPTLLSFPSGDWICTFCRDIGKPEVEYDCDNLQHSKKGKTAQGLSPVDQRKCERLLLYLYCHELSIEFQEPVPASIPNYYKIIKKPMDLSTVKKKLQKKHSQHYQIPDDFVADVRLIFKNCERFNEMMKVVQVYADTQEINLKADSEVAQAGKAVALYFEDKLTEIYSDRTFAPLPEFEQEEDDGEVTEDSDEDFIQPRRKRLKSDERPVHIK

[12] = molecular target: Bromodomain-containing protein 1 (Homo sapiens, UniProt O95696); assay: Inhibition of human BRD1 by BROMOscan assay
[13] = Oral bioavailability in beagle dog at 3 mg/kg; type: ADME, organism-based, Canis lupus familiaris; conditions: in vivo
[14] = molecular target: Nucleosome-remodeling factor subunit BPTF (Homo sapiens, UniProt Q12830); assay: Inhibition of human BPTF by BROMOscan assay
[15] = molecular target: Cytochrome P450 2C19 (Homo sapiens, UniProt P33261); assay: Inhibition of CYP2C19 (unknown origin) expressed in Escherichia coli bactosomes using 3-butyryl-7-methoxycoumarin as substrate after 10 mins by fluorescence assay; type: ADME
[16] = molecular target: Bromodomain-containing protein 7 (Homo sapiens, UniProt Q9NPI1); assay: Inhibition of human BRD7 by BROMOscan assay
[17] = molecular target: Peregrin (Homo sapiens, UniProt P55201); assay: Inhibition of human BRPF1 by BROMOscan assay
[18] = Terminal half life in rat at 1 mg/kg, iv as infusion; type: ADME, organism-based; set-up: dose 1 mg/kg, route intravenous; conditions: in vivo, read-out: beta t1/2
[19] = molecular target: T2, Bromodomain testis-specific protein (Homo sapiens, UniProt Q58F21); assay: Inhibition of human BRDT bromodomain 2 by BROMOscan assay
[20] = molecular target: Transcription initiation factor TFIID subunit 1 (Homo sapiens, UniProt P21675); assay: Inhibition of human TAF1 by BROMOscan assay
[21] = test system: Blood; assay: Inhibition of LPS-induced IL6 production in human whole blood after 24 hrs by immunoassay; type: functional, tissue-based
[22] = Blood clearance in beagle dog at 1 mg/kg, iv as infusion and 3 mg/kg, po; type: ADME, organism-based, Canis lupus familiaris; conditions: whole blood
[23] = molecular target: Bromodomain and WD repeat-containing protein 1 (Homo sapiens, UniProt Q9NSI6); assay: Inhibition of human WDR9 bromodomain 2 by BROMOscan assay
[24] = AUC (0 to t) in Balb/c mouse at 3 mg/kg, po; type: ADME, organism-based; set-up: dose 3 mg/kg, route oral; conditions: plasma
[25] = molecular target: T3, CREB-binding protein (Homo sapiens, UniProt Q92793); assay: Inhibition of human CREBBP by BROMOscan assay
T3 sequence (Q92793 whole entry): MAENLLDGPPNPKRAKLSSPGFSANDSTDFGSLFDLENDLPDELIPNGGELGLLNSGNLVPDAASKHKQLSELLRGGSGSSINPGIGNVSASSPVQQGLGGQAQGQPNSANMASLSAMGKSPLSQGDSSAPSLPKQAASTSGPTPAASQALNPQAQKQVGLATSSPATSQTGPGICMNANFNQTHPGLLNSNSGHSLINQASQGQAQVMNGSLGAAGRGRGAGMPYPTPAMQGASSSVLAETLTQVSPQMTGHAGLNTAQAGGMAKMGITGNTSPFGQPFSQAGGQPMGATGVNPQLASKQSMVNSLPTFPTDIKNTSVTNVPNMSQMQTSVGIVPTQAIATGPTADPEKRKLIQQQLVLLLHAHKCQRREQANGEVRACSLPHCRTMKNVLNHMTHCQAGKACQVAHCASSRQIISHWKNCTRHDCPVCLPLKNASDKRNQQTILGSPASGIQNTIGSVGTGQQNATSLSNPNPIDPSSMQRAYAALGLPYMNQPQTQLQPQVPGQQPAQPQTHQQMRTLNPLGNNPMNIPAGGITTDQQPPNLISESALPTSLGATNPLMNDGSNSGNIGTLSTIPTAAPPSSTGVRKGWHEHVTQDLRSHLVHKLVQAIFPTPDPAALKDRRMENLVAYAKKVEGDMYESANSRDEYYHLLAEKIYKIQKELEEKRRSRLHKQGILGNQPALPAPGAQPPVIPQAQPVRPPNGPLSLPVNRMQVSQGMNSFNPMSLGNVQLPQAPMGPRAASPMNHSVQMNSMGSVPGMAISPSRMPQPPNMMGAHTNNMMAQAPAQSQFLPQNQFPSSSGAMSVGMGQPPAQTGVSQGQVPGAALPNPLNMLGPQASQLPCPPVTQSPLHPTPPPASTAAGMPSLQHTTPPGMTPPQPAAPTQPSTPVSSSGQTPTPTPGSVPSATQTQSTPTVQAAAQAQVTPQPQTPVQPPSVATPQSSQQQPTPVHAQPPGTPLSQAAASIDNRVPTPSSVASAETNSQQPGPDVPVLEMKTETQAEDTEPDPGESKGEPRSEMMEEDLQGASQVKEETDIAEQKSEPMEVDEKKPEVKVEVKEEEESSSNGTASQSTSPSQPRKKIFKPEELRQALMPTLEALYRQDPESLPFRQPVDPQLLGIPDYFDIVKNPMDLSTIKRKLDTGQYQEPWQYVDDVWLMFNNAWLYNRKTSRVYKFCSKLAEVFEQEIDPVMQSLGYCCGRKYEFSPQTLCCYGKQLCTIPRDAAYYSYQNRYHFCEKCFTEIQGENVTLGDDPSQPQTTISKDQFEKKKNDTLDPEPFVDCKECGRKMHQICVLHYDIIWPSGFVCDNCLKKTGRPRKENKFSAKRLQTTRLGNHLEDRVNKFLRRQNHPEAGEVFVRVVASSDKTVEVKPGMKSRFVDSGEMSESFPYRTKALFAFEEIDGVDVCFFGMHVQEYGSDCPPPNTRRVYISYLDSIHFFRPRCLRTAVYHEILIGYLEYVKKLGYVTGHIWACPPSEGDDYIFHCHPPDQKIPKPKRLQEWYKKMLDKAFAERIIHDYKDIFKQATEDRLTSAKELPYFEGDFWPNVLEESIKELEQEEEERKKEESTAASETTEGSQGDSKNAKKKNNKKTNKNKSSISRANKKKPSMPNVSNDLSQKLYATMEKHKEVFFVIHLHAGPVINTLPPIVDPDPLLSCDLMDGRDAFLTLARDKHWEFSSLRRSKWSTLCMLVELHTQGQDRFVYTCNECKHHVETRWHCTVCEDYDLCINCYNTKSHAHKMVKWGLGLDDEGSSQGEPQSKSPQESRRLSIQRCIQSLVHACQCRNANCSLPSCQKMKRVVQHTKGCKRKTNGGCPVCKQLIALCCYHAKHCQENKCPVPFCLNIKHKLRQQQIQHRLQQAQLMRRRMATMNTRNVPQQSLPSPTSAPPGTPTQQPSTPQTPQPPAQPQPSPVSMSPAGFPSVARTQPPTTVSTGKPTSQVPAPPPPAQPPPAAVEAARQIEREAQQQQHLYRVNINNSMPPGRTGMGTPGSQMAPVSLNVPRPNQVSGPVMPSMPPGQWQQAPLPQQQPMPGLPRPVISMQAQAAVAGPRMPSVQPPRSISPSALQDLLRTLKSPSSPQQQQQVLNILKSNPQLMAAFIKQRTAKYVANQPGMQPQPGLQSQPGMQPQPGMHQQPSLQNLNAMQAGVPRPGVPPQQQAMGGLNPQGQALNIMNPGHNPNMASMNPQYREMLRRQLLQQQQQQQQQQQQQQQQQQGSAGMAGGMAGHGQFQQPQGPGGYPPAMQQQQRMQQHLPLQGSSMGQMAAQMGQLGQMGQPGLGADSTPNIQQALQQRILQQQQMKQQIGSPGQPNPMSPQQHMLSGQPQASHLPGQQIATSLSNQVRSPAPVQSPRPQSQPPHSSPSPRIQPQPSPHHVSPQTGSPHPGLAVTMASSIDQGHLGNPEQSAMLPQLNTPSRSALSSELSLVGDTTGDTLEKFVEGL

[26] = molecular target: Histone acetyltransferase KAT2B (Homo sapiens, UniProt Q92831); assay: Inhibition of human PCAF by BROMOscan assay
[27] = molecular target: Bromodomain and PHD finger-containing protein 3 (Homo sapiens, UniProt Q9ULD4); assay: Inhibition of human BRPF3 by BROMOscan assay
[28] = Blood clearance in rat at 1 mg/kg, iv as infusion and 3 mg/kg, po; type: ADME, organism-based; conditions: whole blood
[29] = molecular target: T4, Bromodomain-containing protein 3 (Homo sapiens, UniProt Q15059); assay: Inhibition of human BRD3 bromodomain 1 by BROMOscan assay
T4 sequence (Q15059 whole entry): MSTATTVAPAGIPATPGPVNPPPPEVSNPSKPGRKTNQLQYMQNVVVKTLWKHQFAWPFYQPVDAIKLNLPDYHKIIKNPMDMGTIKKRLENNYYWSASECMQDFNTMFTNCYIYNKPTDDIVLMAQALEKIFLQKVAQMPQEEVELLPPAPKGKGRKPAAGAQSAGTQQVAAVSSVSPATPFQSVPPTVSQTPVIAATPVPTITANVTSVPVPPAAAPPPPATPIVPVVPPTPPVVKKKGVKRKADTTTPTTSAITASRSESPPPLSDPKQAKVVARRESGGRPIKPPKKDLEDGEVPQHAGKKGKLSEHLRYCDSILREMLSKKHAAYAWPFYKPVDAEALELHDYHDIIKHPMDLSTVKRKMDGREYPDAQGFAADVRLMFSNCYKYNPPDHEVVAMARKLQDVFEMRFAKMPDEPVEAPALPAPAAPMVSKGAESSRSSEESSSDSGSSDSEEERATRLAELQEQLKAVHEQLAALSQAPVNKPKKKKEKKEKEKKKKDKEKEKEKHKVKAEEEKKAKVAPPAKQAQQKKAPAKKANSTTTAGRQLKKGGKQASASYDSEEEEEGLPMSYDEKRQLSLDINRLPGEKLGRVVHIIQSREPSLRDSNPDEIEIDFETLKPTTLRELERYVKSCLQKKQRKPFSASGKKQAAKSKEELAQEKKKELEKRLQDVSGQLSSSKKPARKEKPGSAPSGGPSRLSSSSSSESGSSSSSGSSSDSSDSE

[30] = Permeability of the compound by PAMPA; type: ADME; conditions: read-out: permeability
[31] = molecular target: T3, CREB-binding protein; assay: Binding affinity to CREBBP (unknown origin) by ITC method
[32] = molecular target: Histone acetyltransferase KAT2A (Homo sapiens, UniProt Q92830); assay: Inhibition of human GCN5 by BROMOscan assay
[33] = Fraction unbound in human blood by rapid equilibrium dialysis method; type: ADME, tissue-based
[34] = molecular target: Bromodomain adjacent to zinc finger domain protein 2A (Homo sapiens, UniProt Q9UIF9); assay: Inhibition of human BAZ2A by BROMOscan assay
[35] = AUC (0 to t) in Cynomolgus monkey at 2 mg/kg, po; type: ADME, organism-based, Macaca fascicularis; set-up: dose 2 mg/kg, route oral; conditions: plasma
[36] = molecular target: Cytochrome P450 2D6 (Homo sapiens, UniProt P10635); assay: Inhibition of recombinant human CYP2D6 expressed in Escherichia coli bactosomes using 4-methylaminomethyl-7-methoyxycoumarin as substrate after 10 mins by fluorescence assay; type: ADME
[37] = molecular target: Cytochrome P450 3A4 (Homo sapiens, UniProt P08684); assay: Time-dependent inhibition of human recombinant CYP3A4 expressed in Escherichia coli bactosomes using diethoxyfluorescein as substrate by fluorescence assay; type: ADME; conditions: recombinant enzyme
[38] = Volume of distribution at steady state in Balb/c mouse at 10 mg/kg, iv as bolus dose; type: ADME, organism-based; set-up: dose 10 mg/kg, route intravenous; conditions: in vivo, read-out: Vdss
[39] = molecular target: Protein polybromo-1 (Homo sapiens, UniProt Q86U86); assay: Inhibition of human PBRM1 bromodomain 1 by BROMOscan assay
[40] = Fraction unbound in dog blood by rapid equilibrium dialysis method; type: ADME, tissue-based, Canis lupus familiaris
[41] = molecular target: T2, Bromodomain testis-specific protein; assay: Inhibition of human BRDT bromodomain 1 by BROMOscan assay
[42] = molecular target: SWI/SNF-related matrix-associated actin-dependent regulator of chromatin subfamily A member 2 (Homo sapiens, UniProt P51531); assay: Inhibition of human SMARCA2 by BROMOscan assay
[43] = Terminal half life in Cynomolgus monkey at 1 mg/kg, iv as infusion; type: ADME, organism-based, Macaca fascicularis; set-up: dose 1 mg/kg, route intravenous; conditions: in vivo, read-out: beta t1/2 (converted)
[44] = Clearance in dog hepatocytes assessed per gram of tissue at 1 uM by LC-MS/MS analysis; type: ADME, cell-based, Canis lupus familiaris, Hepatocyte
[45] = molecular target: T4, Bromodomain-containing protein 3; assay: Displacement of biotinylated tetra-acetylated histone H4 from His6-tagged BRD3 (1 to 475 aa) (unknown origin) after 1 hr by TR-FRET assay
[46] = Oral bioavailability in rat at 3 mg/kg; type: ADME, organism-based; conditions: in vivo
[47] = Blood clearance in Cynomolgus monkey at 1 mg/kg, iv as infusion and 3 mg/kg, po; type: ADME, organism-based, Macaca fascicularis; conditions: whole blood
[48] = molecular target: T1, Bromodomain-containing protein 2; assay: Inhibition of human BRD2 bromodomain 2 by BROMOscan assay
[49] = AUC (0 to t) in beagle dog at 3 mg/kg, po; type: ADME, organism-based, Canis lupus familiaris; set-up: dose 3 mg/kg, route oral; conditions: plasma

Compound: CC(=O)N1c2ccc(-c3ccc(C(=O)O)cc3)cc2[C@H](Nc2ccc(Cl)cc2)C[C@@H]1C
- IC50 [1]: 31.6 µM
- IC50 [2]: > 31.6 µM
- CLH [3]: < 0.85 mL/min/g
- fraction unbound [4]: 0.013
- IC50 [5]: 13 µM
- IC50 [6]: > 31.6 µM
- IC50 [7]: 15.8 µM
- Vd [8]: 0.8 L/kg
- bioavailability [9]: 45%
- solubility at 16 h [10]: 106 µg/mL (≈ 244 µM)
- IC50 [11]: > 10 µM
- IC50 [12]: > 20 µM
- bioavailability [13]: 80%
- IC50 [14]: > 31.6 µM
- IC50 [15]: 12 µM
- IC50 [16]: > 0.00126 µM
- IC50 [17]: > 0.00398 µM
- half-life [18]: > 8 h
- IC50 [19]: 31.6 µM
- IC50 [20]: 31.6 µM
- IC50 [21]: 0.398 µM
- clearance [22]: 6 mL/min/kg
- IC50 [23]: 31.6 µM
- AUC(0-t) [24]: 6030 ng·h/mL
- IC50 [25]: 31.6 µM
- IC50 [26]: > 7.94 µM
- IC50 [27]: > 0.001 µM
- clearance [28]: 26 mL/min/kg
- IC50 [29]: 0.000631 µM
- Papp [30]: 9.5 ×10⁻⁶ cm/s
- Kd [31]: 6.3 µM
- IC50 [32]: > 0.316 µM
- fraction unbound [33]: 0.017
- IC50 [34]: > 31.6 µM
- AUC(0-t) [35]: 11000 ng·h/mL
- IC50 [36]: > 33 µM
- inhibition (INH) [37]: Active
- Vd [38]: 0.48 L/kg
- IC50 [39]: 0.631 µM
- fraction unbound [40]: 0.065
- IC50 [41]: 31.6 µM
- IC50 [42]: > 31.6 µM
- half-life [43]: 2.7 h
- CLH [44]: < 1.7 mL/min/g
- IC50 [45]: 0.2 µM
- bioavailability [46]: 28%
- clearance [47]: 3 mL/min/kg
- IC50 [48]: 0.00316 µM
- AUC(0-t) [49]: 5900 ng·h/mL
